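Dose response: 5 concentrations. Exposure: 48 h. Format: 96-well plates. Endpoint: linear interpolation; highest concentration if not reached. GI50 marks 50% less growth.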 Calls of active or inactive are those of the source. Cut-off read from the data, not from the text of the source: active = GI50 up to about 1.1 µM and inactive = higher.
Assays:
Assay in all cases: DTP human tumour cell line panel, 48 h
HL-60 = system: HL-60
DU-145 = system: DU-145
MDA-MB-435 = system: MDA-MB-435
M14 = system: M14
OVCAR-5 = system: OVCAR-5
EKVX = system: EKVX
HCT-116 = system: HCT-116
NCI-H522 = system: NCI-H522
A498 = system: A498
HOP-62 = system: HOP-62
SR = system: SR
RXF 393 = system: RXF 393
IGROV-1 = system: IGROV-1
KM12 = system: KM12
SK-MEL-5 = system: SK-MEL-5
CCRF-CEM = system: CCRF-CEM
MOLT-4 = system: MOLT-4
SK-OV-3 = system: SK-OV-3
SF-539 = system: SF-539
NCI-H460 = system: NCI-H460

SMILES	GI50 (HL-60)	GI50 (DU-145)	GI50 (MDA-MB-435)	GI50 (M14)	GI50 (OVCAR-5)	GI50 (EKVX)	GI50 (HCT-116)	GI50 (NCI-H522)	GI50 (A498)	GI50 (HOP-62)	GI50 (SR)	GI50 (RXF 393)	GI50 (IGROV-1)	GI50 (KM12)	GI50 (SK-MEL-5)	GI50 (CCRF-CEM)	GI50 (MOLT-4)	GI50 (SK-OV-3)	GI50 (SF-539)	GI50 (NCI-H460)
CCSCCCC(=O)O	> 100 µM (inactive)	> 100 µM (inactive)	> 100 µM (inactive)	> 100 µM (inactive)	> 100 µM (inactive)	> 100 µM (inactive)	> 100 µM (inactive)	> 100 µM (inactive)	> 100 µM (inactive)	> 100 µM (inactive)	> 100 µM (inactive)	> 100 µM (inactive)	> 100 µM (inactive)	> 100 µM (inactive)	> 100 µM (inactive)	> 100 µM (inactive)	> 100 µM (inactive)	> 100 µM (inactive)		
CCOC(=O)C(NC(=O)CC)(Nc1ccc(S(=O)(=O)Nc2onc(C)c2C)cc1)C(F)(F)F (centres undefined)	> 100 µM (inactive)	> 100 µM (inactive)	> 100 µM (inactive)	> 100 µM (inactive)	> 100 µM (inactive)	> 100 µM (inactive)	> 100 µM (inactive)	> 100 µM (inactive)		> 100 µM (inactive)	> 100 µM (inactive)	> 100 µM (inactive)	> 100 µM (inactive)	> 100 µM (inactive)	> 100 µM (inactive)	> 100 µM (inactive)	> 100 µM (inactive)	> 100 µM (inactive)	> 100 µM (inactive)	> 100 µM (inactive)
CN1CCN(CCCN)CC1	> 100 µM (inactive)	> 100 µM (inactive)	> 100 µM (inactive)	> 100 µM (inactive)	> 100 µM (inactive)	> 100 µM (inactive)	> 100 µM (inactive)	> 100 µM (inactive)	> 100 µM (inactive)	> 100 µM (inactive)	> 100 µM (inactive)	> 100 µM (inactive)	> 100 µM (inactive)	> 100 µM (inactive)	> 100 µM (inactive)	> 100 µM (inactive)	> 100 µM (inactive)	> 100 µM (inactive)		
C=C1CC(COc2ccc3c(C)c(Cl)c(=O)oc3c2)(c2ccccc2)OC1=O (centres undefined)	0.277 µM (active)	3.01 µM (inactive)	2.45 µM (inactive)	1.04 µM (active)	12.4 µM (inactive)	10.5 µM (inactive)	1.01 µM (active)	1.14 µM (inactive)	11.8 µM (inactive)	7.03 µM (inactive)	1.3 µM (inactive)		1.94 µM (inactive)	2.48 µM (inactive)	1.74 µM (inactive)	0.302 µM (active)	0.805 µM (active)	5.92 µM (inactive)	3.38 µM (inactive)	8 µM (inactive)
O=Cc1ccc2[nH]c(=O)oc2c1	99.5 µM (inactive)	> 100 µM (inactive)	> 100 µM (inactive)	> 100 µM (inactive)	> 100 µM (inactive)	> 100 µM (inactive)	> 100 µM (inactive)		> 100 µM (inactive)	> 100 µM (inactive)	39.7 µM (inactive)	94.8 µM (inactive)	> 100 µM (inactive)	> 100 µM (inactive)		42.3 µM (inactive)	60.4 µM (inactive)	> 100 µM (inactive)	> 100 µM (inactive)	> 100 µM (inactive)
CCCCCCn1c(SC)nc(COC(=O)NC)c1COC(=O)NC	19.6 µM (inactive)	16.5 µM (inactive)	19.7 µM (inactive)	21.3 µM (inactive)	19.9 µM (inactive)	13.9 µM (inactive)	17.8 µM (inactive)	11.4 µM (inactive)	16.3 µM (inactive)	19.6 µM (inactive)	19.7 µM (inactive)		15.3 µM (inactive)	18.2 µM (inactive)	16.6 µM (inactive)	> 10 µM (inactive)	13 µM (inactive)	19 µM (inactive)	17.6 µM (inactive)	18.1 µM (inactive)
CC[C@@]1(O)C[C@H](OC2CC(N(C)C)C(OC3CC(O)C(OC4CCC(=O)C(C)O4)C(C)O3)C(C)O2)c2c(cc3c(c2O)C(=O)c2c(O)ccc(O)c2C3=O)[C@H]1C(=O)OC (some centres undefined)	6.56e-05 µM (active)	0.00173 µM (active)	0.000929 µM (active)	0.000438 µM (active)	0.000365 µM (active)	0.00492 µM (active)	2.32e-05 µM (active)	5.28e-05 µM (active)		8.75e-05 µM (active)	0.000101 µM (active)	0.000344 µM (active)	5.35e-05 µM (active)	8.77e-05 µM (active)	0.000535 µM (active)	8.38e-05 µM (active)	3.55e-05 µM (active)	0.000404 µM (active)	0.000114 µM (active)	2.33e-05 µM (active)
O=C1CNc2cc(N3CCOCC3)ccc2N1	> 100 µM (inactive)	> 100 µM (inactive)	> 100 µM (inactive)	> 100 µM (inactive)	> 100 µM (inactive)	2.91 µM (inactive)	> 100 µM (inactive)	> 100 µM (inactive)	60.7 µM (inactive)	> 100 µM (inactive)	> 100 µM (inactive)	> 100 µM (inactive)	> 100 µM (inactive)	> 100 µM (inactive)	> 100 µM (inactive)	> 100 µM (inactive)	> 100 µM (inactive)	> 100 µM (inactive)		> 100 µM (inactive)
O=C(O)CNn1c(SCC(=O)O)nnc(/C=C/c2c(O)ccc3ccccc23)c1=O	9.98 µM (inactive)	3.16 µM (inactive)	75.7 µM (inactive)	17.1 µM (inactive)	28.5 µM (inactive)	14.3 µM (inactive)	28.8 µM (inactive)	29.8 µM (inactive)	32.7 µM (inactive)	16.1 µM (inactive)	32.3 µM (inactive)		0.15 µM (active)	31.6 µM (inactive)	18.7 µM (inactive)	3.57 µM (inactive)		5.53 µM (inactive)	> 100 µM (inactive)	4.91 µM (inactive)
O=C(CN1CCCCC1)c1ccc2c(c1)Sc1ccccc1O2	14.2 µM (inactive)	20.9 µM (inactive)	14.5 µM (inactive)	14.1 µM (inactive)	15 µM (inactive)	17.1 µM (inactive)	14.4 µM (inactive)		16 µM (inactive)	16.1 µM (inactive)	18.4 µM (inactive)	4.12 µM (inactive)	10.6 µM (inactive)	16 µM (inactive)		12.6 µM (inactive)	23.1 µM (inactive)	15.5 µM (inactive)	14.3 µM (inactive)	14.1 µM (inactive)
COC(=O)c1cc2/c(=N/O)c3ccccc3sc2o1	> 100 µM (inactive)	> 100 µM (inactive)	> 100 µM (inactive)	> 100 µM (inactive)	> 100 µM (inactive)	> 100 µM (inactive)	> 100 µM (inactive)	> 100 µM (inactive)	> 100 µM (inactive)	> 100 µM (inactive)	> 100 µM (inactive)		> 100 µM (inactive)	> 100 µM (inactive)	> 100 µM (inactive)	> 100 µM (inactive)	> 100 µM (inactive)	> 100 µM (inactive)	> 100 µM (inactive)	61 µM (inactive)
CCOC(=O)c1ccc(-n2cnc(-c3ccc([N+](=O)[O-])cc3)c2)cc1	> 100 µM (inactive)	> 100 µM (inactive)	> 100 µM (inactive)	> 100 µM (inactive)	> 100 µM (inactive)	> 100 µM (inactive)	31.4 µM (inactive)	13.1 µM (inactive)	> 100 µM (inactive)	94.2 µM (inactive)	> 100 µM (inactive)		> 100 µM (inactive)	> 100 µM (inactive)	25.3 µM (inactive)	> 100 µM (inactive)	> 100 µM (inactive)	> 100 µM (inactive)	> 100 µM (inactive)	> 100 µM (inactive)
CO/N=C(\C)CCC#Cc1ccccc1C(=O)OC	> 10 µM (inactive)	> 10 µM (inactive)	> 10 µM (inactive)	> 10 µM (inactive)	> 10 µM (inactive)	> 10 µM (inactive)	> 10 µM (inactive)		> 10 µM (inactive)	> 10 µM (inactive)	> 10 µM (inactive)	> 10 µM (inactive)	> 10 µM (inactive)	> 10 µM (inactive)	> 10 µM (inactive)	> 10 µM (inactive)	> 10 µM (inactive)	> 10 µM (inactive)	> 10 µM (inactive)	> 10 µM (inactive)
CC1=C(N2CC2)C(=O)c2ccccc2C1=O	2.52 µM (inactive)	0.116 µM (active)	1.51 µM (inactive)	1.22 µM (inactive)	0.402 µM (active)	0.136 µM (active)	1.37 µM (inactive)	0.444 µM (active)		1.04 µM (active)	0.117 µM (active)	0.422 µM (active)	1.47 µM (inactive)	1.13 µM (inactive)	0.164 µM (active)	1.19 µM (inactive)	1.11 µM (active)	2.52 µM (inactive)	1.69 µM (inactive)	0.454 µM (active)
CCOC(=O)N1CCC(=C2c3ccc(Cl)cc3CCc3cccnc32)CC1 [LORATADINE]	6.12 µM (inactive)	11.5 µM (inactive)	8.83 µM (inactive)	12.4 µM (inactive)	20.8 µM (inactive)	13.9 µM (inactive)	11.2 µM (inactive)		0.849 µM (active)	15.2 µM (inactive)	2.64 µM (inactive)	6.71 µM (inactive)	1.79 µM (inactive)	10.6 µM (inactive)	2.08 µM (inactive)	4.32 µM (inactive)	4.23 µM (inactive)	15.5 µM (inactive)		3.44 µM (inactive)

From ChEMBL document CHEMBL1201862, “PubChem BioAssay data set” (2004)
